# Data from patent publication US20020168396A1 (priority 2001, published 2002).
# Values joined by “and” are separate entries in the source; they are usually repeats but may differ in a detail not shown here. Equal values may be shown once. Read-outs that look alike come from different tables or passages of the source.
# Experiments:
# [1] = test system: internal mammary artery (IMA); format: cell-based; parameters: Diameter of the conduit, 0 hrs. / Diameter of the conduit, 2 hrs. / Diameter of the conduit, 12 hrs. / Diameter of the conduit, 24 hrs. / Diameter of the conduit, 48 hrs. / Diameter of the conduit, 72 hrs.: unit not given here
# radial artery = format: cell-based; parameters: Diameter of the conduit, 0 hrs. / Diameter of the conduit, 2 hrs. / Diameter of the conduit, 12 hrs. / Diameter of the conduit, 24 hrs. / Diameter of the conduit, 72 hrs.: unit not given here
# saphenous vein = format: cell-based; parameters: Diameter of the conduit, 0 hrs. / Diameter of the conduit, 2 hrs. / Diameter of the conduit, 12 hrs. / Diameter of the conduit, 24 hrs. / Diameter of the conduit, 48 hrs. / Diameter of the conduit, 72 hrs.: unit not given here
# [2] = topical vasodilators used to overcome vasospasm; cited from earlier work
# [3] = IMA, NTG 0.5 micromol/L, verapamil 100 nanomol/L
# [4] = Radial, NTG 0.5 micromol/L, verapamil 100 nanomol/L
# [5] = Vein, NTG 0.5 micromol/L, verapamil 100 nanomol/L
smiles,measurement,setting,value
"O=[N+]([O-])OCC(CO[N+](=O)[O-])O[N+](=O)[O-] [NTG, nitroglycerine]",Aug % (maximum increase in diameter at a given time point compared to baseline),[1],73% and 50% and 47%
same,"Diameter of the conduit, 0 hrs.",[1],1.5 and 2.2 and 2.3
same,"Diameter of the conduit, 2 hrs.",[1],2.1 and 2.4 and 2.7
same,"Diameter of the conduit, 12 hrs.",[1],2.3 and 2.5 and 2.8
same,"Diameter of the conduit, 24 hrs.",[1],2.3 and 2.6
same,"Diameter of the conduit, 48 hrs.",[1],2.4 and 2.8 and 2.9
same,"Diameter of the conduit, 72 hrs.",[1],2.9 and 3.1 and 3.4
same,Aug % (maximum increase in diameter at a given time point compared to baseline),radial artery,52% and 44% and 42%
same,"Diameter of the conduit, 0 hrs.",radial artery,2.5 and 2.3 and 2.6
same,"Diameter of the conduit, 2 hrs.",radial artery,2.9 and 3.0 and 3.3
same,"Diameter of the conduit, 12 hrs.",radial artery,3.6 and 3.0 and 3.5
same,"Diameter of the conduit, 24 hrs.",radial artery,3.8 and 2.9 and 3.7
same,"Diameter of the conduit, 48 hrs.",radial artery,3.7
same,"Diameter of the conduit, 72 hrs.",radial artery,3.8 and 3.3 and 3.7
same,Aug % (maximum increase in diameter at a given time point compared to baseline),saphenous vein,66% and 67% and 51%
same,"Diameter of the conduit, 0 hrs.",saphenous vein,2.4 and 3.7 and 2.7
same,"Diameter of the conduit, 2 hrs.",saphenous vein,4.0 and 6.2
same,"Diameter of the conduit, 12 hrs.",saphenous vein,3.8 and 6.0 and 4.1
same,"Diameter of the conduit, 24 hrs.",saphenous vein,4.1 and 5.9 and 3.8
same,"Diameter of the conduit, 48 hrs.",saphenous vein,3.7 and 6.1 and 3.9
same,"Diameter of the conduit, 72 hrs.",saphenous vein,3.7 and 6.2
COc1ccc(CCN(C)CCCC(C#N)(c2ccc(OC)c(OC)c2)C(C)C)cc1OC (stereo not shown) [verapamil],"Diameter of the conduit, 2 hrs.",[1]; [3],2.4 and 2.1 and 2.7
same,"Diameter of the conduit, 12 hrs.",[1]; [3],2.6 and 2.4 and 2.8
same,"Diameter of the conduit, 24 hrs.",[1]; [3],2.5 and 2.3 and 2.9
same,"Diameter of the conduit, 48 hrs.",[1]; [3],3.0 and 2.5
same,"Diameter of the conduit, 72 hrs.",[1]; [3],2.9 and 2.7 and 3.1
same,Aug % (maximum increase in diameter at a given time point compared to baseline),[1]; [3],61% and 59% and 64%
same,"Diameter of the conduit, 0 hrs.","[1]; IMA, baseline 0 hrs, Kreb's solution 37° C., NTG 0.5 micromol/L, verapamil 100 nanomol/L",1.8 and 1.7 and 1.9
same,"Diameter of the conduit, 2 hrs.",radial artery; [4],3.5 and 3.9 and 4.1
same,"Diameter of the conduit, 12 hrs.",radial artery; [4],3.5 and 3.9
same,"Diameter of the conduit, 24 hrs.",radial artery; [4],3.8
same,"Diameter of the conduit, 48 hrs.",radial artery; [4],3.6 and 3.8
same,"Diameter of the conduit, 72 hrs.",radial artery; [4],3.6 and 3.9
same,Aug % (maximum increase in diameter at a given time point compared to baseline),radial artery; [4],57% and 62% and 52%
same,"Diameter of the conduit, 0 hrs.","radial artery; Radial, baseline 0 hrs, Kreb's solution 37° C., NTG 0.5 micromol/L, verapamil 100 nanomol/L",2.3 and 2.4 and 2.7
same,"Diameter of the conduit, 2 hrs.",saphenous vein; [5],5.1 and 5.2 and 5.5
same,"Diameter of the conduit, 12 hrs.",saphenous vein; [5],4.8 and 5.7 and 5.3
same,"Diameter of the conduit, 24 hrs.",saphenous vein; [5],5.0 and 5.8 and 5.2
same,"Diameter of the conduit, 48 hrs.",saphenous vein; [5],4.7 and 5.7 and 5.5
same,"Diameter of the conduit, 72 hrs.",saphenous vein; [5],4.8 and 5.8 and 5.4
same,Aug % (maximum increase in diameter at a given time point compared to baseline),saphenous vein; [5],70% and 65% and 66%
same,"Diameter of the conduit, 0 hrs.","saphenous vein; Vein, baseline 0 hrs, Kreb's solution 37° C., NTG 0.5 micromol/L, verapamil 100 nanomol/L",3.0 and 3.5 and 3.3
COc1ccc(Cc2nccc3cc(OC)c(OC)cc23)cc1OC [papaverine],increase in free flow,[2],70%
